Measurements from the NIST ThermoML archive (doi:10.1021/je400510j).
“And” between values parts separate entries of the source, which are not always exact repeats. Identical values can stand only once. Numbers after ± are expanded uncertainties.

Conditions: Liquid; for vapor or sublimation pressure: Closed cell (Static) method; for mass density: 101.33 kPa, Vibrating tube method

Cc1ccccc1 [toluene]
vapor or sublimation pressure (288.15 K): 2.42 ± 0.11 kPa and 2.35 ± 0.11 kPa
vapor or sublimation pressure (293.15 K): 3.18 ± 0.11 kPa and 3.05 ± 0.11 kPa
vapor or sublimation pressure (298.15 K): 3.84 ± 0.11 kPa
vapor or sublimation pressure (303.15 K): 4.73 ± 0.11 kPa

O [water]
vapor or sublimation pressure (283.15 K): 1.27 ± 0.1 kPa
vapor or sublimation pressure (288.15 K): 1.73 ± 0.11 kPa
vapor or sublimation pressure (293.15 K): 2.33 ± 0.11 kPa
vapor or sublimation pressure (298.15 K): 3.2 ± 0.11 kPa

c1ccncc1 [pyridine]
vapor or sublimation pressure (288.15 K): 1.65 ± 0.1 kPa and 1.72 ± 0.1 kPa
vapor or sublimation pressure (293.15 K): 2.2 ± 0.1 kPa and 2.25 ± 0.1 kPa
vapor or sublimation pressure (298.15 K): 2.83 ± 0.11 kPa and 2.85 ± 0.11 kPa
vapor or sublimation pressure (303.15 K): 3.45 ± 0.11 kPa

CO[PH](=O)[O-].Cn1cc[n+](C)c1 [1,3-dimethylimidazolium methyl phosphonate]
mass density (298.15 K): 1230.6 ± 1.3 kg/m3
mass density (299.45 K): 1229.8 ± 1.3 kg/m3
mass density (300.75 K): 1229.3 ± 1.3 kg/m3
mass density (302.15 K): 1228.6 ± 1.3 kg/m3
mass density (303.45 K): 1227.9 ± 1.3 kg/m3
mass density (304.75 K): 1227.3 ± 1.3 kg/m3
mass density (305.85 K): 1226.6 ± 1.3 kg/m3
mass density (307.15 K): 1225.8 ± 1.3 kg/m3
mass density (308.65 K): 1224.9 ± 1.3 kg/m3
mass density (310.35 K): 1223.9 ± 1.3 kg/m3
mass density (311.75 K): 1223.1 ± 1.3 kg/m3
mass density (313.05 K): 1222.4 ± 1.3 kg/m3
mass density (314.45 K): 1221.5 ± 1.3 kg/m3
mass density (315.85 K): 1220.7 ± 1.3 kg/m3
mass density (317.25 K): 1219.9 ± 1.3 kg/m3
mass density (318.75 K): 1219.2 ± 1.3 kg/m3

c1ccsc1 [thiophene]
vapor or sublimation pressure (288.15 K): 6.78 ± 0.13 kPa and 6.75 ± 0.13 kPa
vapor or sublimation pressure (293.15 K): 8.7 ± 0.13 kPa and 8.74 ± 0.13 kPa
vapor or sublimation pressure (298.15 K): 10.37 ± 0.13 kPa and 10.58 ± 0.14 kPa
vapor or sublimation pressure (303.15 K): 12.98 ± 0.15 kPa
